Test system: 953936-095-R-J2-PDC spheroids with HUVEC/MSC, viability
Assay: Anticancer human tumor 953936-095-R-J2-PDC patient-derived cervical squamous cell carcinoma cell line growth inhibition [PI3K]
Conditions: for IC50: curve of first compound; for viability, T/C: stronger effect = lower value
How it was run: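 Targeted small molecules plus PI3K inhibitors, half-log dose series from Cmax (default top 10 microM), were applied to heterotypic spheroids of cancer cells with HUVEC and MSCs. Viability indicated growth inhibition.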

[1] = second compound 0.0316 µM, first compound 0.0316 µM
[2] = second compound 0.0316 µM, first compound 0.1 µM
[3] = second compound 0.1 µM, first compound 0.0316 µM
[4] = second compound 0.1 µM, first compound 0.1 µM
[5] = second compound 0.316 µM, first compound 0.0316 µM
[6] = second compound 0.316 µM, first compound 0.1 µM
[7] = second compound 1 µM, first compound 0.0316 µM
[8] = second compound 1 µM, first compound 0.1 µM
[9] = second compound 3.16 µM, first compound 0.0316 µM
[10] = second compound 3.16 µM, first compound 0.1 µM
[11] = second compound 10 µM, first compound 0.0316 µM
[12] = second compound 10 µM, first compound 0.1 µM
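Also: spheroids exposed to compounds for seven days before read-out.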

CC(C)n1nc(-c2ccc3oc(N)nc3c2)c2c(N)ncnc21 + Cc1nc(NC(=O)N2CCCC2C(N)=O)sc1-c1ccnc(C(C)(C)C(F)(F)F)c1
IC50 (second compound 0.0316 µM): 0.0243 µM | IC50 (second compound 0.1 µM): 0.0187 µM | IC50 (second compound 0.316 µM): 0.00732 µM | IC50 (second compound 1 µM): < 0.000316 µM | IC50 (second compound 3.16 µM): < 0.000316 µM | IC50 (second compound 10 µM): < 0.000316 µM | viability, T/C (second compound 0.0316 µM, first compound 0.000316 µM): 83% | viability, T/C (second compound 0.0316 µM, first compound 0.001 µM): 86.6% | viability, T/C (second compound 0.0316 µM, first compound 0.00316 µM): 78.5% | viability, T/C (second compound 0.0316 µM, first compound 0.01 µM): 68.2% | viability, T/C [1]: 44.8% | viability, T/C [2]: 16.1% | viability, T/C (second compound 0.1 µM, first compound 0.000316 µM): 78.4% | viability, T/C (second compound 0.1 µM, first compound 0.001 µM): 74.6% | viability, T/C (second compound 0.1 µM, first compound 0.00316 µM): 69.2% | viability, T/C (second compound 0.1 µM, first compound 0.01 µM): 64.1% | viability, T/C [3]: 39.2% | viability, T/C [4]: 15.2% | viability, T/C (second compound 0.316 µM, first compound 0.000316 µM): 66% | viability, T/C (second compound 0.316 µM, first compound 0.001 µM): 60.7% | viability, T/C (second compound 0.316 µM, first compound 0.00316 µM): 56.8% | viability, T/C (second compound 0.316 µM, first compound 0.01 µM): 48.7% | viability, T/C [5]: 30.8% | viability, T/C [6]: 11.8% | viability, T/C (second compound 1 µM, first compound 0.000316 µM): 45.9% | viability, T/C (second compound 1 µM, first compound 0.001 µM): 42.9% | viability, T/C (second compound 1 µM, first compound 0.00316 µM): 38.4% | viability, T/C (second compound 1 µM, first compound 0.01 µM): 33.9% | viability, T/C [7]: 19.7% | viability, T/C [8]: 8.92% | viability, T/C (second compound 3.16 µM, first compound 0.000316 µM): 26% | viability, T/C (second compound 3.16 µM, first compound 0.001 µM): 24.1% | viability, T/C (second compound 3.16 µM, first compound 0.00316 µM): 21.5% | viability, T/C (second compound 3.16 µM, first compound 0.01 µM): 18.3% | viability, T/C [9]: 10.8% | viability, T/C [10]: 5.88% | viability, T/C (second compound 10 µM, first compound 0.000316 µM): 11.7% | viability, T/C (second compound 10 µM, first compound 0.001 µM): 10.8% | viability, T/C (second compound 10 µM, first compound 0.00316 µM): 10.2% | viability, T/C (second compound 10 µM, first compound 0.01 µM): 9.27% | viability, T/C [11]: 6.73% | viability, T/C [12]: 3.32%

CCCS(=O)(=O)Nc1ccc(F)c(C(=O)c2c[nH]c3ncc(-c4ccc(Cl)cc4)cc23)c1F + Cc1nc(NC(=O)N2CCCC2C(N)=O)sc1-c1ccnc(C(C)(C)C(F)(F)F)c1
IC50 (second compound 0.0316 µM): 5.03 µM | IC50 (second compound 0.1 µM): 4.88 µM | IC50 (second compound 0.316 µM): 4.28 µM | IC50 (second compound 1 µM): < 0.0316 µM | IC50 (second compound 3.16 µM): < 0.0316 µM | IC50 (second compound 10 µM): < 0.0316 µM | viability, T/C [1]: 90.7% | viability, T/C [2]: 95.1% | viability, T/C (second compound 0.0316 µM, first compound 0.316 µM): 95.8% | viability, T/C (second compound 0.0316 µM, first compound 1 µM): 99.2% | viability, T/C (second compound 0.0316 µM, first compound 3.16 µM): 83.2% | viability, T/C (second compound 0.0316 µM, first compound 10 µM): 0.75% | viability, T/C [3]: 82.6% | viability, T/C [4]: 88.3% | viability, T/C (second compound 0.1 µM, first compound 0.316 µM): 86.1% | viability, T/C (second compound 0.1 µM, first compound 1 µM): 92.9% | viability, T/C (second compound 0.1 µM, first compound 3.16 µM): 80% | viability, T/C (second compound 0.1 µM, first compound 10 µM): 0.68% | viability, T/C [5]: 64.6% | viability, T/C [6]: 65.1% | viability, T/C (second compound 0.316 µM, first compound 0.316 µM): 66.9% | viability, T/C (second compound 0.316 µM, first compound 1 µM): 73.8% | viability, T/C (second compound 0.316 µM, first compound 3.16 µM): 68.2% | viability, T/C (second compound 0.316 µM, first compound 10 µM): 0.57% | viability, T/C [7]: 46.6% | viability, T/C [8]: 45.9% | viability, T/C (second compound 1 µM, first compound 0.316 µM): 47% | viability, T/C (second compound 1 µM, first compound 1 µM): 50.2% | viability, T/C (second compound 1 µM, first compound 3.16 µM): 37.3% | viability, T/C (second compound 1 µM, first compound 10 µM): 0.59% | viability, T/C [9]: 26.6% | viability, T/C [10]: 26.2% | viability, T/C (second compound 3.16 µM, first compound 0.316 µM): 27.5% | viability, T/C (second compound 3.16 µM, first compound 1 µM): 25.5% | viability, T/C (second compound 3.16 µM, first compound 3.16 µM): 20.2% | viability, T/C (second compound 3.16 µM, first compound 10 µM): 1.4% | viability, T/C [11]: 11.7% | viability, T/C [12]: 12.8% | viability, T/C (second compound 10 µM, first compound 0.316 µM): 13.7% | viability, T/C (second compound 10 µM, first compound 1 µM): 14.2% | viability, T/C (second compound 10 µM, first compound 3.16 µM): 9.62% | viability, T/C (second compound 10 µM, first compound 10 µM): 0.42%

From PubChem BioAssay AID1963971 (Molecular Pharmacology Branch, DTP, NCI, 2024)
